For assay [1], the target named is E. coli PBP3 (Escherichia coli (strain K12), UniProt P0AD68). Put plainly: E. coli PBP3 Bocillin-FL fluorescence polarization competition binding assay. In short, it runs like this: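 FP competition: 1.5 μM PBP, 0.1 μM Bocillin-FL, cpd 0–1000 μM; 50 mM Hepes pH 8.0/300 mM NaCl/5% glycerol. Read 490/520 nm immediately after Bocillin-FL addition, 60 min. EC50 = cpd conc. lowering probe binding.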

Assay [2] concerns the target E. coli PBP1b (Escherichia coli (strain K12), UniProt P02919). Put plainly: Radioligand competition binding assay with 14C-labeled boronic acid probe, PBP1b. From the text: To determine the ability of boronic acid-based test PBP inhibitors to bind Penicillin Binding Proteins (PBPs), a radio-labelled boronic acid PBP inhibitor
[drawing 751] was used in competition binding assays to determine boronic acid PBP inhibitor binding to PBP1a or PBP1b from Escherichia coli. PBP1a and PBP1b were purified as described previously (Bertsche, U.; et al., J. Biol. Chem. 2005, 280 (45), 38096-38101; Born, P.; et al., J. Biol. Chem. 2006. 281 (37), 26985-26993). To establish assay conditions for competition binding, an enzyme titration/saturation binding experiment was performed. Saturation binding was performed in a buffer comprised of 20 mM Tris (pH 7.5), 500 mM NaCl and 0.1% (v/v) TritonX-100, with PBP1a/PBP1b at a final concentration of 0.1 μM and Compound A at final concentrations ranging from 0-100 μM. Mixtures were incubated for 60 minutes, then applied to Zeba Spin Desalting columns or plates (ThermoFisher Scientific) and centrifuged at 1000-1500×g for 2 minutes. The flow through, containing PBP bound with Compound A, was recovered and 100 μL mixed with 5 mL of UltimaGold liquid scintillation cocktail (Perkin Elmer), and the radioactivity counted using a Beckman Coulter LS 6500 Multipurpose scintillation counter. PBP binding of Compound A approached saturation at 20 μM of ^14C-labeled probe. The competition binding assay was validated using the beta-lactam ampicillin, with Compound A at a final concentration of 20 μM, PBP1a/PBP1b at a final concentration of 0.1 μM. PBP1a/PBP1b was incubated with ampicillin in a 96-well microplate for 60 minutes, then Compound A was added and the mixtures incubated for an additional 60 minutes. The mixtures were then applied to Zeba Spin desalting plates and centrifuged at 1000×g for 2 minutes. The flow through was recovered and 100 μl mixed with 5 ml of UltimaGold liquid scintillation cocktail and the radioactivity counted. […] Binding assays with boronic acid PBP inhibitors were performed in an identical fashion. The potency of boronic acid PBP inhibitors was reported as the EC50 value.

The subject of assay [3] is N. gonorrhoeae ATCC 49226. Put plainly: Liquid broth MIC, N. gonorrhoeae ATCC 49226. The class given is cell-based. Particulars: Neisseria gonorrhoeae, ATCC49226; N. gonorrhoeae ATCC 49226, liquid broth; read-out: Minimum Inhibitory Concentration, N. gonorrhoeae ATCC 49226. The procedure: (§1) Additional antibacterial testing of the series was performed in wild-type reference strains of N. gonorrhoeae (ATCC 49226, FA1090, WHO F and FA19). Liquid broth-based assays were used for antibacterial testing of PBP inhibitors in Neisseria gonorrhoeae. Briefly, cryo-preserved bacterial cultures of clinical strains are streaked for isolation on GC Base agar (BD #228950 at 36 g/L autoclaved at 121° C. for 20 minutes to sterilize) with 1% Kellogg's supplement (40 g glucose, 0.5 g glutamine, 0.05 g ferric nitrate and 2 mg cocarboxylase per 100 mL deionized water filter sterilized through 0.2 μm syringe filters). Following incubation at 36° C. and 5% CO2 to allow growth of colonies, strains are aseptically sub-cultured from original agar plate onto 3 agar plates per strain 24 hours before inoculum preparation. 2-fold serial dilutions of test compounds are conducted in a 96 well plate with a final volume of 150 μL per well at 4/3-fold the final desired concentration. For preparation of assay inoculum, a direct suspension is prepared by aseptically swabbing all colonies from sub-cultured agar plates into culture tubes containing 2 mL of fresh GC broth with […]. After the dilution plates are set up, direct suspensions are then diluted in a cuvette containing GC broth (15 g proteose peptone 43, 1 g corn starch, 4 g dipotassium phosphate, 1 g monopotassium phosphate and 5 g sodium chloride per liter of deionized water are mixed on a stir plate for 20 minutes, pH adjusted to 7.2+/−0.2 pH units with 1 N HCl, centrifuged at 10,000×g for 20 minutes to pellet undissolved corn starch and then autoclaved at 121° C. for 20 minutes to sterilize) and the optical density is measured at 600 nm. Inocula are diluted such that 50 μL of this culture in […] results in a starting bacterial concentration of 5×10^5 CFU/mL when added to the dilution plates. The plates are incubated 40-42 hours at 36° C. and 5% CO2. The MIC is read visually as the lowest concentration well with no bacterial growth.

For assay [4], the system named is N. gonorrhoeae FA1090. Put plainly: Liquid broth MIC, N. gonorrhoeae FA1090. The class given is cell-based. Particulars: Neisseria gonorrhoeae; N. gonorrhoeae FA1090, liquid broth; read-out: Minimum Inhibitory Concentration, N. gonorrhoeae FA1090. Here is the method: as §1
The test system of assay [5] is N. gonorrhoeae WHO F. Put plainly: Liquid broth MIC, N. gonorrhoeae WHO F. The class given is cell-based. Particulars: Neisseria gonorrhoeae; N. gonorrhoeae WHO F, liquid broth; read-out: Minimum Inhibitory Concentration, N. gonorrhoeae WHO F. The procedure: as §1
In assay [6] the test system is N. gonorrhoeae FA19. Briefly: Liquid broth MIC, N. gonorrhoeae FA19. The assay is classed as cell-based. Particulars: Neisseria gonorrhoeae; N. gonorrhoeae FA19, liquid broth; read-out: Minimum Inhibitory Concentration, N. gonorrhoeae FA19. Here is the method: as §1
Assay [7] concerns engineered strain of Escherichia coli harboring CTX-M15. Briefly: microbe, parasite or virus in culture. The assay is classed as cell-based. Particulars: Escherichia coli, read-out: Microbiological Activity (MIC in mg/L), E. coli DH5α/pLBII-CTX-M15, engineered strain producing CTX-M15. The procedure:
Briefly, cryo-preserved bacterial cultures of challenge strains are streaked for isolation on appropriate agar medium, in this case Mueller Hinton II agar. Following incubation to allow growth of the colonies, plates are sealed with parafilm and stored refrigerated for up to two weeks. For preparation of assay inoculum and to ensure low variability, at least 5 colonies are picked from the agar plates with an inoculating loop and aseptically transferred to a culture tube containing 3 mL of Mueller-Hinton Broth (supplemented with divalent cations to required levels based on Manufacturers' certification). The broth culture is grown for 3-5 hours at 37° C. with shaking at 200 rpm. Meanwhile, 2-fold serial dilutions of test compounds are conducted in a 96 well plate with a final volume of 75 μL per well at 2-fold the final desired concentration. After the dilution plates are set up the growing cultures are then diluted in a cuvette containing MH II broth and the optical density is measured at 600 nm. The Inoculum is diluted such that 75 μL of this culture in Mueller-Hinton Broth results in a starting bacterial concentration of 5×10^5 CFU/mL when added to the dilution plates. The plates are incubated for 16-20 hours at 37° C. The MIC values are read visually as the lowest concentration well with no bacterial growth.
To determine if test compounds were affected by CTX-M15, the most abundant extended spectrum […] in clinical settings worldwide, the inhibition of the growth of an engineered strain of Escherichia coli harboring CTX-M15 was tested. This strain was constructed by cloning the gene encoding CTX-M15 into the NdeI and BamHI restriction endonuclease sites of plasmid pLBII, placing the gene(s) under the control of the Lac promoter. The constructed expression plasmid for CTX-M15 was used to transform competent E. coli DH5α cells to make the engineered strain, including an empty pLBII vector control strain. The classic cell based broth microdilution MIC assay was employed as described above with the addition of control antibiotics, known to be degraded by β-lactamases (Ceftazidime, piperacillin and piperacillin+tazobactam).

The mark [8] stands for this setting: fluorescence polarization competition binding with Bocillin-FL, read-out: E. coli K12 PBP3 Potency.

The structures appear in SMILES notation. ≈ marks a conversion by molar mass, not a printed value. Where two headings read alike, the source gives them in different places.

E. coli PBP1b, sequence (P02919 whole entry): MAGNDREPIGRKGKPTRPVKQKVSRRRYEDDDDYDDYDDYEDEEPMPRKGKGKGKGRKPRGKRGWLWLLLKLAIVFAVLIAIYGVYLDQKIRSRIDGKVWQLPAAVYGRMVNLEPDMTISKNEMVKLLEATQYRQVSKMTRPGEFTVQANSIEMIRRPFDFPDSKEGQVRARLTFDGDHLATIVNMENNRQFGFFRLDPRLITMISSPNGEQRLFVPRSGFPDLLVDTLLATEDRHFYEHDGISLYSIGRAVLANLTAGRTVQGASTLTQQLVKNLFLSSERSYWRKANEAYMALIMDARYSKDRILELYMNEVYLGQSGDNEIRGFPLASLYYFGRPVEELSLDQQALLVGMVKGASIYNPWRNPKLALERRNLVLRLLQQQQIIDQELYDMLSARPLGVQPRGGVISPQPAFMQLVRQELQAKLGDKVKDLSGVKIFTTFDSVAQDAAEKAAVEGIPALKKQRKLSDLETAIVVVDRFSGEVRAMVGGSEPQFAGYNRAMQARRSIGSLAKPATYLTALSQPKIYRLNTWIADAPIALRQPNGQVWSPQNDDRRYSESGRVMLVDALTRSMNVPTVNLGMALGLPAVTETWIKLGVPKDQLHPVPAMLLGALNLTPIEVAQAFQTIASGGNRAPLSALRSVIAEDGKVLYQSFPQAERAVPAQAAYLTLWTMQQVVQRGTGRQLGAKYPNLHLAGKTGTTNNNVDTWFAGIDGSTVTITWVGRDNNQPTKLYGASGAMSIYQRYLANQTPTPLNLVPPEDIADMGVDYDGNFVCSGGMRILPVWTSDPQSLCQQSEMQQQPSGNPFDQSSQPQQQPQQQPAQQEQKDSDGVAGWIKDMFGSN
E. coli PBP3, sequence (P0AD68 whole entry): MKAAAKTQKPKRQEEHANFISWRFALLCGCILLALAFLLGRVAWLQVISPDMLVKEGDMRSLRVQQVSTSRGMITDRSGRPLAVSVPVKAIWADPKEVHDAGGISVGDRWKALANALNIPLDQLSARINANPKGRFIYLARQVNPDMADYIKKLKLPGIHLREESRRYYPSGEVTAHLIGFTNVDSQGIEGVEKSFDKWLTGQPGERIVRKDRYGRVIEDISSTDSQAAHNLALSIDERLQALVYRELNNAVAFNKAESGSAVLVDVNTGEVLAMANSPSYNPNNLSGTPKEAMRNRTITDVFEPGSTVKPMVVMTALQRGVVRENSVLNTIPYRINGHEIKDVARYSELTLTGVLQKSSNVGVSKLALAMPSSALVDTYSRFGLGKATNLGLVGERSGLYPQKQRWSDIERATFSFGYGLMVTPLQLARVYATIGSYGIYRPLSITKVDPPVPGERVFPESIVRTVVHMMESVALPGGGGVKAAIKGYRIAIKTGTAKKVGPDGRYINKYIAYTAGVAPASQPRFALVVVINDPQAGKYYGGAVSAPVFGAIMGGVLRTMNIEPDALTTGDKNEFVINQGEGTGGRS

Turning to `CCN1CCN(C(=O)NC(CC(=O)N[C@H]2Cc3cccc(C(=O)O)c3OB2O)c2cc(O)c(O)c(Cl)c2)C(=O)C1=O` (stereo partly drawn) [Example 43, (3R)-3-(3-(3-chloro-4,5-dihydroxyphenyl)-3-(4-ethyl-2,3-dioxopiperazine-1-carboxamido)propanamido)-2-hydroxy-3,4-dihydro-2H-benzo[e][1,2]oxaborinine-8-carboxylic acid], the EC50 was in the range of 30 to 500 µM in assay [1] and 10 to 100 µM in assay [2].

Turning to `CCN1CCN(C(=O)NC(C(=O)N[C@H]2Cc3cccc(C(=O)O)c3OB2O)C(O)c2ccc(O)c(O)c2Cl)C(=O)C1=O` (stereo partly drawn) [Example 47, (3R)-3-(3-(2-chloro-3,4-dihydroxyphenyl)-2-(4-ethyl-2,3-dioxopiperazine-1-carboxamido)-3-hydroxypropanamido)-2-hydroxy-3,4-dihydro-2H-benzo[e][1,2]oxaborinine-8-carboxylic acid], the figures for the EC50 in assay [1] (setting [8]) and in assay [2] were over 500 µM and 10 to 100 µM, respectively.

On to `CCN1CCN(C(=O)NC(C(=O)N[C@H]2Cc3cccc(C(=O)O)c3OB2O)C(O)c2cccc(O)c2O)C(=O)C1=O` (stereo partly drawn) [Example 48, (3R)-3-(3-(2,3-dihydroxyphenyl)-2-(4-ethyl-2,3-dioxopiperazine-1-carboxamido)-3-hydroxypropanamido)-2-hydroxy-3,4-dihydro-2H-benzo[e][1,2]oxaborinine-8-carboxylic acid], for which the values for the EC50 in assay [1] (setting [8]) and in assay [2] were over 500 µM and under 10 µM, respectively.

Consider `O=C(O)c1cccc2c1OB(O)[C@@H](NC(=O)C(NC(=O)N1CCNC1=O)c1ccc(O)c(O)c1Cl)C2` (stereo partly drawn) [Example 52, (3R)-3-(2-(2-chloro-3,4-dihydroxyphenyl)-2-(2-oxoimidazolidine-1-carboxamido)acetamido)-2-hydroxy-3,4-dihydro-2H-benzo[e][1,2]oxaborinine-8-carboxylic acid], for which the MIC was 0.25 to 0.5 µg/mL (≈ 0.482 to 0.964 µM) in assay [3]; under 0.125 µg/mL in assay [4]; under 0.125 µg/mL in assay [5]; over 64 µg/mL in assay [6]; 128 to 256 mg/L (≈ 247 to 494 µM) in assay [7].

In assay [2], `CCN1CCN(C(=O)NC(C(=O)N[C@H]2Cc3cccc(C(=O)O)c3OB2O)c2ccccn2)C(=O)C1=O` (stereo partly drawn) [Example 56, (3R)-3-(2-(4-ethyl-2,3-dioxopiperazine-1-carboxamido)-2-(pyridin-2-yl)acetamido)-2-hydroxy-3,4-dihydro-2H-benzo[e][1,2]oxaborinine-8-carboxylic acid] showed an EC50 of over 100 µM.

With `CCN1CCN(C(=O)NC(C(=O)N[C@H]2Cc3cccc(C(=O)O)c3OB2O)c2ccc(-c3nnn[nH]3)cc2)C(=O)C1=O` (stereo partly drawn) [Example 93], the EC50 in assay [1] (setting [8]) is under 30 µM. For the same molecule, the MIC in assay [3] is 4 to 8 µg/mL (≈ 6.94 to 13.9 µM); in assay [4], 0.25 to 0.5 µg/mL (≈ 0.434 to 0.868 µM); in assay [5], under 0.125 µg/mL; in assay [6] it was 4 to 8 µg/mL (≈ 6.94 to 13.9 µM); in assay [7], 32 to 64 mg/L (≈ 55.5 to 111 µM).

On to `CCN1CCN(C(=O)NC(C(=O)N[C@H]2Cc3cccc(C(=O)O)c3OB2O)C2CCS(=O)(=O)C2)C(=O)C1=O` (stereo partly drawn) [Example 123, (3R)-3-(2-(1,1-dioxidotetrahydrothiophen-3-yl)-2-(4-ethyl-2,3-dioxopiperazine-1-carboxamido)acetamido)-2-hydroxy-3,4-dihydro-2H-benzo[e][1,2]oxaborinine-8-carboxylic acid], for which the EC50 in assay [1] (setting [8]) is over 500 µM; in assay [2], over 100 µM.

On to `CCN1CCN(C(=O)NC(C(=O)N[C@H]2Cc3cccc(C(=O)O)c3OB2O)c2ccc(C)cn2)C(=O)C1=O` (stereo partly drawn) [Example 127, (3R)-3-(2-(4-ethyl-2,3-dioxopiperazine-1-carboxamido)-2-(5-methylpyridin-2-yl)acetamido)-2-hydroxy-3,4-dihydro-2H-benzo[e][1,2]oxaborinine-8-carboxylic acid], for which the EC50 is over 500 µM in assay [1] (setting [8]) and over 100 µM in assay [2].

On to `CCN1CCN(C(=O)NC(C(=O)N[C@H]2Cc3cccc(C(=O)O)c3OB2O)C(Cl)CCCO)C(=O)C1=O` (stereo partly drawn) [Example 129, (3R)-3-(3-chloro-2-(4-ethyl-2,3-dioxopiperazine-1-carboxamido)-6-hydroxyhexanamido)-2-hydroxy-3,4-dihydro-2H-benzo[e][1,2]oxaborinine-8-carboxylic acid], for which the EC50 in assay [1] (setting [8]) was over 500 µM; in assay [2] it was over 100 µM.

Take `CCN1CCN(C(=O)NC(C(=O)N[C@H]2Cc3cccc(C(=O)O)c3OB2O)C(Cl)CCCO)C(=O)C1=O` (stereo partly drawn) [Example 130, (3R)-3-(3-chloro-2-(4-ethyl-2,3-dioxopiperazine-1-carboxamido)-6-hydroxyhexanamido)-2-hydroxy-3,4-dihydro-2H-benzo[e][1,2]oxaborinine-8-carboxylic acid]: the EC50 in assay [2] (read-out: E. coli K12 PBP1b EC50, competition binding with 14C-labeled boronic acid probe) is over 100 µM.

Take `CCN1CCN(C(=O)NC(C(=O)N[C@H]2Cc3cccc(C(=O)O)c3OB2O)c2ccc(N)cn2)C(=O)C1=O` (stereo partly drawn) [Example 132, (3R)-3-(2-(5-aminopyridin-2-yl)-2-(4-ethyl-2,3-dioxopiperazine-1-carboxamido)acetamido)-2-hydroxy-3,4-dihydro-2H-benzo[e][1,2]oxaborinine-8-carboxylic acid]: the figures for the EC50 in assay [1] (setting [8]) and in assay [2] were under 30 µM and 10 to 100 µM, respectively.

Source of the values: patent publication US12173018B2, “Penicillin-binding protein inhibitors” (priority 2018, dated 2024).
